Activity calls are given as the source filed them. The calls are words filed in the database; no cut-off is given here.
Legend:
Echinochloa oryzicola [1] = assay: Herbicidal activity against Echinochloa oryzicola at 10 g a.i/a measured after 3 weeks; assay type: functional, organism-based
Echinochloa oryzicola [2] = assay: Herbicidal activity against Echinochloa oryzicola at 1 g a.i/a measured after 3 weeks; assay type: functional, organism-based

`C=C(c1ccccc1)N(CC1CCCO1)C(=O)CCl` (stereo not given) was tested. Which Activity (Echinochloa oryzicola [1]) did it give?
Its Activity is “Active”.

`CC(C)=C(c1ccccc1)N(C(=O)CCl)c1ccc(Cl)cc1` was tested. Which Activity (Echinochloa oryzicola [1]) did it give?
Its Activity is “Active”.

With `C=C(c1ccccc1)N(C(=O)CCl)c1c(C)cccc1C` as the compound, how does the Activity (Echinochloa oryzicola [1]) read?
The Activity was “Active”.

And the Activity (Echinochloa oryzicola [2])?
The Activity was “Active”.

With `C=C(c1ccccc1)N(C(=O)CCl)c1ccccc1OC` as the compound, how does the Activity (Echinochloa oryzicola [1]) read?
The Activity was “Active”.

For `C=C(c1cccc([N+](=O)[O-])c1)N(C(=O)CCl)c1c(C)cccc1C`, which Activity (Echinochloa oryzicola [1]) is on record?
The Activity was “Active”.

Which results are given for `C/C=C(\c1ccccc1)N(CCCC)C(=O)CCl`?
Activity (Echinochloa oryzicola [1]): Active; Activity (Echinochloa oryzicola [2]): inactive

Which Activity (Echinochloa oryzicola [1]) does the source give for `C=C(c1ccccc1)N(C(=O)CCl)c1ccccc1C` here?
The Activity was “inactive”.

With `C=C(c1ccccc1)N(C(=O)CCl)c1cccc2ccccc12` as the compound, how does the Activity (Echinochloa oryzicola [1]) read?
The Activity was “inactive”.

With `C=C(c1ccc(C#N)cc1)N(C(=O)CCl)c1c(C)cccc1C` as the compound, how does the Activity (Echinochloa oryzicola [1]) read?
The Activity was “Active”.

And the Activity (Echinochloa oryzicola [2])?
Its Activity is “inactive”.

Which results are given for `CCCCCCN(C(=O)CCl)C(=C(C)C)c1ccccc1`?
Activity (Echinochloa oryzicola [1]): Active; Activity (Echinochloa oryzicola [2]): Active

`CCN(C(=O)CCl)C(=C(C)C)c1ccccc1` was tested. Which Activity (Echinochloa oryzicola [1]) did it give?
The Activity was “Active”.

What about the Activity (Echinochloa oryzicola [2]) of the same compound?
The Activity was “Active”.

Which results are given for `C=C(c1cccc(Br)c1)N(C(=O)CCl)c1c(C)cccc1C`?
Activity (Echinochloa oryzicola [1]): Active; Activity (Echinochloa oryzicola [2]): inactive

What does the source list for `CC(C)=C(c1ccccc1)N(C)C(=O)CCl`?
Activity (Echinochloa oryzicola [1]): Active; Activity (Echinochloa oryzicola [2]): Active

How did the Activity (Echinochloa oryzicola [1]) turn out when `C=C(c1ccccc1)N(C(=O)CCl)c1c(Cl)cccc1Cl` was run?
Its Activity is “inactive”.

How did the Activity (Echinochloa oryzicola [1]) turn out when `C=C(c1ccccc1)N(C(=O)CCl)c1c(C)cccc1CC` was run?
Its Activity is “Active”.

And the Activity (Echinochloa oryzicola [2])?
Its Activity is “Active”.

Which results are given for `CCCN(C(=O)CCl)C(=C(C)C)c1ccccc1`?
Activity (Echinochloa oryzicola [1]): Active; Activity (Echinochloa oryzicola [2]): inactive

Which Activity (Echinochloa oryzicola [1]) does the source give for `C=C(c1ccccc1)N(C(=O)CCl)c1ccccc1` here?
The Activity was “inactive”.

Which Activity (Echinochloa oryzicola [1]) does the source give for `C=C(c1ccccc1)N(C(=O)CCl)c1c(CC)cccc1CC` here?
Its Activity is “Active”.

What about the Activity (Echinochloa oryzicola [2]) of the same compound?
The Activity was “inactive”.

Which results are given for `CC(C)=C(c1ccccc1)N(Cc1ccccc1)C(=O)CCl`?
Activity (Echinochloa oryzicola [1]): Active; Activity (Echinochloa oryzicola [2]): Active

Which Activity (Echinochloa oryzicola [1]) does the source give for `C=CCN(C(=O)CCl)C(=C(C)C)c1ccccc1` here?
Its Activity is “Active”.

What about the Activity (Echinochloa oryzicola [2]) of the same compound?
Its Activity is “Active”.

For `C=C(c1ccc(OC)cc1)N(CCCCCC)C(=O)CCl`, which Activity (Echinochloa oryzicola [1]) is on record?
The Activity was “Active”.

`CC(C)=C(c1ccccc1)N(C(=O)CCl)C(C)C` was tested. Which Activity (Echinochloa oryzicola [1]) did it give?
Its Activity is “Active”.

With `CC(C)=C(c1ccccc1)N(C(=O)CCl)c1ccccc1` as the compound, how does the Activity (Echinochloa oryzicola [1]) read?
The Activity was “inactive”.

Which Activity (Echinochloa oryzicola [1]) does the source give for `C=C(c1ccc(Cl)c(Cl)c1)N(C(=O)CCl)c1c(C)cccc1C` here?
The Activity was “inactive”.

`C=C(c1cccn1C)N(C(=O)CCl)c1c(C)cccc1C` was tested. Which Activity (Echinochloa oryzicola [1]) did it give?
Its Activity is “inactive”.

`CCC(C)N(C(=O)CCl)C(=C(C)C)c1ccccc1` (stereo not given) was tested. Which Activity (Echinochloa oryzicola [1]) did it give?
Its Activity is “inactive”.

`C=CCN(C(=O)CCl)/C(=C/C)c1ccccc1` was tested. Which Activity (Echinochloa oryzicola [1]) did it give?
The Activity was “Active”.

And the Activity (Echinochloa oryzicola [2])?
Its Activity is “inactive”.

With `C=C(c1ccc(Cl)cc1)N(C(=O)CCl)c1c(C)cccc1C` as the compound, how does the Activity (Echinochloa oryzicola [1]) read?
The Activity was “Active”.

And the Activity (Echinochloa oryzicola [2])?
Its Activity is “inactive”.

For `CC(C)=C(c1ccccc1)N(CC(C)C)C(=O)CCl`, which Activity (Echinochloa oryzicola [1]) is on record?
Its Activity is “inactive”.

Which Activity (Echinochloa oryzicola [1]) does the source give for `C=C(c1ccccc1Cl)N(C(=O)CCl)c1c(C)cccc1C` here?
The Activity was “Active”.

What about the Activity (Echinochloa oryzicola [2]) of the same compound?
The Activity was “Active”.

What does the source list for `CC(C)=C(c1ccccc1)N(Cc1ccco1)C(=O)CCl`?
Activity (Echinochloa oryzicola [1]): Active; Activity (Echinochloa oryzicola [2]): Active

How did the Activity (Echinochloa oryzicola [1]) turn out when `CC=C(c1ccccc1)N(C(=O)CCl)c1c(C)cccc1C` (mixture of isomers) was run?
Its Activity is “Active”.

And the Activity (Echinochloa oryzicola [2])?
Its Activity is “inactive”.

`C=C(c1ccccc1OC)N(C(=O)CCl)c1c(C)cccc1C` was tested. Which Activity (Echinochloa oryzicola [1]) did it give?
Its Activity is “Active”.

What about the Activity (Echinochloa oryzicola [2]) of the same compound?
The Activity was “Active”.

How did the Activity (Echinochloa oryzicola [1]) turn out when `C=C(c1ccc(SC)s1)N(C(=O)CCl)c1c(C)cccc1C` was run?
Its Activity is “inactive”.

Which Activity (Echinochloa oryzicola [1]) does the source give for `C=C(c1ccccc1)N(C(=O)CCl)c1cc(C)nn1C` here?
Its Activity is “inactive”.

`C=C(c1ccco1)N(C(=O)CCl)c1c(C)cccc1C` was tested. Which Activity (Echinochloa oryzicola [1]) did it give?
Its Activity is “Active”.

`C=C(c1ccc(OC)cc1)N(C(=O)CCl)c1c(C)cccc1C` was tested. Which Activity (Echinochloa oryzicola [1]) did it give?
Its Activity is “Active”.

And the Activity (Echinochloa oryzicola [2])?
The Activity was “inactive”.

With `C=C(c1ccc2ccccc2c1)N(C(=O)CCl)c1c(C)cccc1C` as the compound, how does the Activity (Echinochloa oryzicola [1]) read?
Its Activity is “inactive”.

With `C=C(c1ccccc1C)N(C(=O)CCl)c1c(C)cccc1C` as the compound, how does the Activity (Echinochloa oryzicola [1]) read?
The Activity was “Active”.

What about the Activity (Echinochloa oryzicola [2]) of the same compound?
The Activity was “Active”.

How did the Activity (Echinochloa oryzicola [1]) turn out when `CC(C)=C(c1ccccc1)N(C(=O)CCl)c1c(C)cccc1C` was run?
The Activity was “inactive”.

From ChEMBL document CHEMBL3044948, “Synthesis and Herbicidal Activity of N-(1-Arylethenyl)-2-chloroacetamides” (Agric Biol Chem, 1991)
